According to ChEMBL document CHEMBL1151375, “Potential antitumor agents. XVII. physalin B and 25,26-epidihydrophysalin C from Witheringia coccoloboides” (1981):
Values after ≈ are worked out from the molar mass of the structure shown.

Key:
Format in all cases: functional
[1] = Cytotoxicity against human 9KB cells; settings: read-out: ED50 (the source's name)
[2] = Cytotoxicity against mouse 9PS cells; settings: read-out: ED50 (the source's name)
[3] = In vivo cytotoxicity against mouse 3PS cells at 300 mg/kg

Row | Structure (SMILES) | EC50 [1] [mg/L] | EC50 [2] [mg/L] | T/C [3] [%]
1 | C[C@@]12C[C@H]3OC(=O)[C@@H]1CO[C@]14O[C@@]5([C@H]2C1=O)[C@@]3(C)OC(=O)[C@@]5(O)CC[C@H]1[C@H]4C[C@@H]2O[C@@]23CC=CC(=O)[C@]13C [5-ALPHA,6-ALPHA-EPOXYPHYSALIN B] | 0.43 (≈ 0.817 µM) | 1.6 (≈ 3.04 µM) | –
2 | C[C@@H]1C(=O)O[C@@H]2C[C@@]1(C)[C@@H]1C(=O)[C@]3(O)O[C@]14[C@@]2(C)OC(=O)[C@@]4(O)CC[C@H]1[C@H]3CC=C2CC=CC(=O)[C@@]21C | 12 (≈ 23.4 µM) | 0.89 (≈ 1.74 µM) | –
3 | C[C@]12C(=O)C=CCC1=CC[C@@H]1[C@@H]2CC[C@]2(O)C(=O)O[C@@]3(C)[C@H]4C[C@]5(C)[C@@H](CO[C@@]16O[C@@]32[C@H]5C6=O)C(=O)O4 [PHYSALIN B] | 3.1 (≈ 6.07 µM) | 0.01 (≈ 0.0196 µM) | 137
